The conditions of data set [1]: bronchodilator; cited from earlier work.
A short description of data set [2]: Stability tests of FPD at 40° C. and 75% Rh (tests S1-S5, HBS1-HBS3), out of […]. Type of data set: physicochemical. The note with it: conclusion of the tests.

As to `C[N+]1(C)[C@@H]2C[C@@H](OC(=O)C(O)(c3cccs3)c3cccs3)C[C@H]1[C@@H]1O[C@@H]12` [tiotropium bromide], in data set [1], the Duration of action result is listed as “up to 24 hours”.

`C[N+]1(C)[C@@H]2C[C@@H](OC(=O)C(O)(c3cccs3)c3cccs3)C[C@H]1[C@@H]1O[C@@H]12` [tiotropium]: in data set [2], the Sensitivity to moisture result is “extremely sensitive to moisture”.

The values above are taken from patent publication US20090192185A1, “MEDICAL PRODUCT” (Boehringer Ingelheim International GmbH, priority 2003, published 2009).
